Assays:
ECL1036 (KPC) = type: cell-based, Enterobacter cloacae
Source text: (§1) Several strains simultaneously expressing both class A and class B carbapenemases, which were constructed using conjugation, were also included in the panel.

ECLM1014 (NDM, KPC) = type: cell-based, Enterobacter cloacae
Source text: as §1

ECLM1013 (NDM, KPC) = type: cell-based, Enterobacter cloacae
Source text: as §1

ECL1055 (KPC) = type: cell-based, Enterobacter cloacae
Source text: as §1

ECLM1015 (NDM, KPC) = type: cell-based, Enterobacter cloacae
Source text: as §1

P99/AmpC of ECL = P99/AmpC of ECL (Enterobacter cloacae, UniProt P05364); assay: biochemical; conditions: nitrocefin; read-out: Ki (P99/AmpC of ECL, NCF)
Chain of P99/AmpC of ECL (P05364 21-381): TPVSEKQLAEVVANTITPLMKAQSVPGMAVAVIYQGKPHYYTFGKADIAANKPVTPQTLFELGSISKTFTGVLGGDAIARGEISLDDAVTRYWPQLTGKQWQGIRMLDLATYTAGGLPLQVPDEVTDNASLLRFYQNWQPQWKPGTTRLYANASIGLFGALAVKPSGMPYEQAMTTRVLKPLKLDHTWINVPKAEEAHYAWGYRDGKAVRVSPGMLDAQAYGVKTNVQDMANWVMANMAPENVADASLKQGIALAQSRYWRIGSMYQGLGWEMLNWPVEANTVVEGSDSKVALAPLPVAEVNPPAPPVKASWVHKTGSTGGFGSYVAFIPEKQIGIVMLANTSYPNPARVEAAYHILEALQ
Procedure: Purified enzymes were mixed with various concentrations of inhibitors in reaction buffer and incubated for 10 min at room temperature. Nitrocefin was added and substrate cleavage profiles were recorded at 490 nm every 10 sec for 10 min.

EA1019 (SHV-5, VIM-1) = type: cell-based, Enterobacter aerogenes
Source text: as §1

[1] = tested on: strains of Enterobacteriaceae producing various carbapenemases; assay: Meropenem/imipenem potentiation MIC, whole panel; type: cell-based; conditions: strains expressing various carbapenemases, incl. class A and class B simultaneously; compound fixed 4 vg/ml
Source text: Several strains simultaneously expressing both class A and class B carbapenemases, which were constructed using conjugation, were also included in the panel. […]

[2] = tested on: KP1081 (NDM-1, TEM-1, SHV-11, CMY-6, CTX-M-15); type: cell-based, Klebsiella pneumoniae
Source text: as §1

KPM1123 (KPC-2 TEM SHV) = type: cell-based, Klebsiella pneumoniae
Source text: as §1

KPM1111 (NDM, KPC) = type: cell-based, Klebsiella pneumoniae
Source text: as §1

KPM1344 (VIM-1) = type: cell-based, Klebsiella pneumoniae
Source text: as §1

[3] = tested on: KPM1347 (NDM-1 SHV CTX-M-15); type: cell-based, Klebsiella pneumoniae
Source text: as §1

KPM1122 (NDM, VIM) = type: cell-based, Klebsiella pneumoniae
Source text: as §1

KP1098 (IMP-26 TEM SHV) = type: cell-based, Klebsiella pneumoniae
Source text: as §1

KP1065 (VIM-1, SHV-11) = type: cell-based, Klebsiella pneumoniae
Source text: as §1

`Nn1cnnc1S[C@H]1Cc2cccc(C(=O)O)c2OB1O` [Compound 14, (R)-3-(4-amino-4H-1,2,4-triazol-3-ylthio)-2-hydroxy-3,4-dihydro-2H-benzo[e][1,2]oxaborinine-8-carboxylic acid] was tested, and the “Meropenem + 14 MIC” value (ECL1036 (KPC)) was “X (key: X: MIC of less than 1 μg/mL; Y: MIC of 1 μg/mL to 10 μg/mL; Z: MIC of greater than 10 μg/mL)”, the “Imipenem + 14 MIC” value (ECLM1014 (NDM, KPC)) was “X (key: X: MIC of less than 1 μg/mL; Y: MIC of 1 μg/mL to 10 μg/mL; Z: MIC of greater than 10 μg/mL)” and the “Meropenem + 14 MIC” value (ECLM1014 (NDM, KPC)) was “X (key: X: MIC of less than 1 μg/mL; Y: MIC of 1 μg/mL to 10 μg/mL; Z: MIC of greater than 10 μg/mL)”. The “Imipenem + 14 MIC” value (ECLM1013 (NDM, KPC)) was “X (key: X: MIC of less than 1 μg/mL; Y: MIC of 1 μg/mL to 10 μg/mL; Z: MIC of greater than 10 μg/mL)”, the “Meropenem + 14 MIC” value (ECLM1013 (NDM, KPC)) was “X (key: X: MIC of less than 1 μg/mL; Y: MIC of 1 μg/mL to 10 μg/mL; Z: MIC of greater than 10 μg/mL)” and the “Imipenem + 14 MIC” value (ECL1055 (KPC)) was “X (key: X: MIC of less than 1 μg/mL; Y: MIC of 1 μg/mL to 10 μg/mL; Z: MIC of greater than 10 μg/mL)”. The “Meropenem + 14 MIC” value (ECL1055 (KPC)) was “X (key: X: MIC of less than 1 μg/mL; Y: MIC of 1 μg/mL to 10 μg/mL; Z: MIC of greater than 10 μg/mL)”, the “Imipenem + 14 MIC” value (ECLM1015 (NDM, KPC)) was “X (key: X: MIC of less than 1 μg/mL; Y: MIC of 1 μg/mL to 10 μg/mL; Z: MIC of greater than 10 μg/mL)” and the “Meropenem + 14 MIC” value (ECLM1015 (NDM, KPC)) was “X (key: X: MIC of less than 1 μg/mL; Y: MIC of 1 μg/mL to 10 μg/mL; Z: MIC of greater than 10 μg/mL)”. For the same compound, the Ki (P99/AmpC of ECL) was < 100 nM, the “Imipenem + 14 MIC” value (EA1019 (SHV-5, VIM-1)) was “Y (key: X: MIC of less than 1 μg/mL; Y: MIC of 1 μg/mL to 10 μg/mL; Z: MIC of greater than 10 μg/mL)” and the “Meropenem + 14 MIC” value (EA1019 (SHV-5, VIM-1)) was “X (key: X: MIC of less than 1 μg/mL; Y: MIC of 1 μg/mL to 10 μg/mL; Z: MIC of greater than 10 μg/mL)”. The “carbapenem MIC in the presence of compound” value [1] was “significantly reduced”, the “Imipenem + 14 MIC” value [2] was “X (key: X: MIC of less than 1 μg/mL; Y: MIC of 1 μg/mL to 10 μg/mL; Z: MIC of greater than 10 μg/mL)” and the “Meropenem + 14 MIC” value [2] was “X (key: X: MIC of less than 1 μg/mL; Y: MIC of 1 μg/mL to 10 μg/mL; Z: MIC of greater than 10 μg/mL)”. For the same compound, the “Imipenem + 14 MIC” value (KPM1123 (KPC-2 TEM SHV)) was “X (key: X: MIC of less than 1 μg/mL; Y: MIC of 1 μg/mL to 10 μg/mL; Z: MIC of greater than 10 μg/mL)”, the “Meropenem + 14 MIC” value (KPM1123 (KPC-2 TEM SHV)) was “X (key: X: MIC of less than 1 μg/mL; Y: MIC of 1 μg/mL to 10 μg/mL; Z: MIC of greater than 10 μg/mL)” and the “Imipenem + 14 MIC” value (KPM1111 (NDM, KPC)) was “X (key: X: MIC of less than 1 μg/mL; Y: MIC of 1 μg/mL to 10 μg/mL; Z: MIC of greater than 10 μg/mL)”. The “Meropenem + 14 MIC” value (KPM1111 (NDM, KPC)) was “X (key: X: MIC of less than 1 μg/mL; Y: MIC of 1 μg/mL to 10 μg/mL; Z: MIC of greater than 10 μg/mL)”, the “Imipenem + 14 MIC” value (KPM1344 (VIM-1)) was “X (key: X: MIC of less than 1 μg/mL; Y: MIC of 1 μg/mL to 10 μg/mL; Z: MIC of greater than 10 μg/mL)” and the “Meropenem + 14 MIC” value (KPM1344 (VIM-1)) was “Y (key: X: MIC of less than 1 μg/mL; Y: MIC of 1 μg/mL to 10 μg/mL; Z: MIC of greater than 10 μg/mL)”. The “Imipenem + 14 MIC” value [3] was “X (key: X: MIC of less than 1 μg/mL; Y: MIC of 1 μg/mL to 10 μg/mL; Z: MIC of greater than 10 μg/mL)”, the “Meropenem + 14 MIC” value [3] was “X (key: X: MIC of less than 1 μg/mL; Y: MIC of 1 μg/mL to 10 μg/mL; Z: MIC of greater than 10 μg/mL)” and the “Imipenem + 14 MIC” value (KPM1122 (NDM, VIM)) was “Y (key: X: MIC of less than 1 μg/mL; Y: MIC of 1 μg/mL to 10 μg/mL; Z: MIC of greater than 10 μg/mL)”. The “Meropenem + 14 MIC” value (KPM1122 (NDM, VIM)) was “Y (key: X: MIC of less than 1 μg/mL; Y: MIC of 1 μg/mL to 10 μg/mL; Z: MIC of greater than 10 μg/mL)”, the “Imipenem + 14 MIC” value (KP1098 (IMP-26 TEM SHV)) was “Y (key: X: MIC of less than 1 μg/mL; Y: MIC of 1 μg/mL to 10 μg/mL; Z: MIC of greater than 10 μg/mL)” and the “Meropenem + 14 MIC” value (KP1098 (IMP-26 TEM SHV)) was “Z (key: X: MIC of less than 1 μg/mL; Y: MIC of 1 μg/mL to 10 μg/mL; Z: MIC of greater than 10 μg/mL)”. The “Imipenem + 14 MIC” value (KP1065 (VIM-1, SHV-11)) was “X (key: X: MIC of less than 1 μg/mL; Y: MIC of 1 μg/mL to 10 μg/mL; Z: MIC of greater than 10 μg/mL)” and the “Meropenem + 14 MIC” value (KP1065 (VIM-1, SHV-11)) was “Z (key: X: MIC of less than 1 μg/mL; Y: MIC of 1 μg/mL to 10 μg/mL; Z: MIC of greater than 10 μg/mL)”.
